Data: patent US12208001B2, “Methods and systems for preventing or reducing stenosis in a subject receiving a graft” (The General Hospital Corporation, priority 2012, dated 2025)
Read-outs that look alike come from different tables or passages of the source.

Key:
[1] = tested on: rabbit model for capsular contraction; test: Pilot rabbit model for capsular contraction: sub-cutaneous pockets with fibrin glue, histology at two weeks; format: in vivo; settings: tissue harvested at two weeks; 0.1% Rose Bengal + 532 nm light (3 min at 350 mW) prior to fibrin glue; vs fibrin glue only
Method: (§1) A pilot experiment in a rabbit model for capsular contraction was developed. Three sub-cutaneous pockets were made by surgical incision on the upper rabbit flank. One pocket was left untreated and surgically closed (No fibrin glue). Of the remaining two, one was treated with Fibrin Glue only, and one received Fibrin Glue+RB (0.1% Rose Bengal)+532 nm light (3 min at 350 mW). Fibrin glue is known to produce a fibrotic reaction in this model. After two weeks all three pockets were surgically re-accessed and inspected. […] These cells also appear contained under layers of presumably, cross-linked collagen. A biodegradation assay was also performed. Pockets were treated as described above at both a low (1 J/cm^2) and high (25 J/cm^2) fluence. Fluence was measured using FieldMax II laser power meter (Coherent, Santa Clara, CA). Immediately following, the skin and fascia were removed. Treated and untreated fascia were biopsied with a six mm punch biopsy, weighed and subjected to digestion in a 1% collagenase (Sigma Aldrich. St. Louis, MO) solution at 37° C. Time for complete digestion (the lack of any visible fibers) was recorded for each sample and corrected by weight.

[2] = tested on: fascia of the implant pocket; test: Biodegradation assay: collagenase digestion of fascia; design: species or system rabbit
Method: as §1, with “weight. In vitro studies confirmed that photochemical tissue passivation, under the conditions that were subsequently used in the animal study, could successfully alter the fascia of the implant pocket. […]” for “weight.”

[3] = tested on: capsular contracture following prosthetic implant placement; test: Pre-clinical model of capsular contracture following prosthetic implant placement, fibrin glue induced; format: in vivo, New Zealand white rabbits
Method: The effect of Photochemical Tissue Passivation in a pre-clinical model of capsular contracture following prosthetic implant placement was evaluated. Under general anesthesia, Nine New Zealand white rabbits received three, six cc smooth saline implants placed in the dorsal sub-panniculus soft tissue. Each Rabbit received one control implant and two experimental implants. Briefly, the subpanniculus camosus plane in the dorsum region was dissected and a single customized six cc saline smooth implant with pressure port valve (Allergan Inc., CA, USA) was placed. A total of three implants were placed on the dorsum of each rabbit. The control group consisted of an implant with no Fibrin Glue and no PTP treatment. Before implant placement, the pocket site of the PTP experimental group was treated with 2 ml 0.1% Rose Bengal in a phosphate buffered saline, and Was then exposed to green laser light at 532 nm from a continuous wave KTP laser (Laserscope Aura-I, San Jose, CA). The second experimental group consisted of an implant with Fibrin Glue only. Prior to implant placement, all experimental pockets were injected with five cc of fibrin glue, 500 |μl of 10% CaCl, 1000 units of thrombin in one milliliter of 50 mM TrisCl as a contracture inducing agent. The incisions were closed in two layers with subdermal 4-0 […] and 4-0 interrupted nylon sutures. Topical fibrin glue was applied to the implant pockets in all experimental groups to induce subsequent capsular contracture. Accordingly, the experimental groups can be summarized as follows: Group 1: Control group-“Standard Breast Augmentation” One pocket per Rabbit undergoing standard implant placement with no Fibrin Glue or Passivation. One six cc smooth saline implant was placed per pocket. The incisions were closed in two layers with subdermal 4-0 Vicryl and 4-0 interrupted nylon sutures. Group 2: Experimental group-“Fibrin Glue” only One dorsal pocket per Rabbit is dissected. Fibrin glue was injected into the implant pocket as a capsular contracture-inducing agent. One six cc smooth saline implants was placed per pocket. The incision was closed as above. Group 3: Experimental group-“Pre-implant Tissue Passivation” One dorsal pocket per Rabbit was dissected, Rose Bengal dye was applied. The pocket was exposed to green laser light at. 532 nm from. a continuous wave KT.? laser (Laserscope Aura-I, San Jose, CA). Fibrin glue was injected into the implant pocket as a capsular contracture-inducing agent. Following fibrin glue injection, one six cc smooth saline implant was placed per pocket. The incision was closed as above. Capsule specimens were fixed with 10% buffered formalin and embedded in paraffin. Sections were stained with both Masson Trichrome, and SMA antibody and evaluated histologically and capsular thickness was measured. […] In fact, the SMA pattern in capsules harvested from the treated groups resembled those, which had not been instilled with fibrin glue (FIG. 3).

[4] = tested on: vein graft intimal hyperplasia; format: in vivo, Sprague-Dawley rats
Method: In vivo testing was done by placing a. reversed epigastric vein interposition graft in the femoral artery of Sprague-Dawley rats. Grafts were harvested after four weeks. A total of 16 rats underwent a femoral interposition graft with reversed epigastric vein. Half of the vein gratis (N=8) were treated with PTP using 25 J/cm^2 at fluence. Average operative time was two hours. Additional operative time for PTP was 4-5 minutes on average. There were three instances of surgical wound dehiscence between post-operative day one and two; one in the control group and two in the experimental group. These wounds were irrigated and resutured. None of the grafts were exposed. […] After four weeks, 100% of the vein grafts were patent. […] Histologic cross-sections of the mid-portion of the graft were analyzed using light microscopy. Intimal thickness was measured as the distance between the internal elastic lamina. and the vessel lumen.

connective tissue = tested on: connective tissue
Description: In certain embodiments, a photoactive agent, e.g., Rose Bengal, can be applied, e.g., by brushing, dripping or spraying onto, or injecting into, tissue surfaces (e.g., a single surface in some cases) of a tissue prior to the application of electromagnetic energy, followed by irradiation at an irradiance of less than about 1 W/cm^2. Penetration of topically applied Rose Bengal is about 100 μm or less into connective tissue. […] Similarly, vein grafts or arteriovenous fistula can be prepared for therapeutic use by providing Rose Bengal to the tissue and irradiating the tissue at an irradiance of less than about 1 W/cm^2.

O=C1OC2(c3cc(I)c(O)c(I)c3Oc3c2cc(I)c(O)c3I)c2c(Cl)c(Cl)c(Cl)c(Cl)c21 [PTP, Rose Bengal]
inflammatory infiltrate within the implant pockets (histology) [1]: less infiltrate | increase in degradation time (collagenase digestion) ([2]; 1% collagenase, 37° C, compared to untreated tissue): 300% | effect of increasing the power of the laser on collagen cross-linking ([2]; high (25 J/cm^2) vs low (1 J/cm^2) fluence): did not increase collagen cross-linking | capsular thickness compared to Fibrin Glue alone control (histology) ([3]; eight weeks, Fibrin Glue + Photochemical Tissue Passivation group): significant decrease in capsular thickness | decrease in capsule thickness ([3]; eight weeks, compared to the controls): 52% | deposition of smooth muscle actin (SMA immunohistochemistry) ([3]; eight weeks, treated pockets vs untreated pockets receiving fibrin glue): significantly less deposition of smooth muscle actin | fibrohistiocystic cells, macrophages and synovial metaplasia ([3]; treated pockets): less fibrohistiocystic cells, macrophages and synovial metaplasia | inflammation and vascularity within the capsule ([3]; treated pockets): decreased inflammation and vascularity | Intimal Thickness ([4]; after four weeks, N = 8, Table 2): 24 + 22 um | Medial thickness ([4]; after four weeks, N = 8, Table 3): 141 + 40 um | vein grafts patent ([4]; after four weeks, all grafts, treated and untreated): 100% | neointimal thickness ([4]; four weeks, PTP 25 J/cm^2, N=8): 24+22 μm | Medial thickness ([4]; four weeks, treated grafts): 141 µm | instances of surgical wound dehiscence ([4]; rat, in vivo): two | pseudoaneurysms or aneurysmal dilatation of the grafts ([4]; rat, in vivo): no pseudoaneurysms or aneurysmal dilatation | wound infections ([4]; rat, in vivo): no wound infections | graft distention after vessel clamp removal ([4]; restored blood flow, compared to untreated controls): less distention | smooth muscle hypertrophy and medial thickness ([4]; treated compared to untreated grafts): marked reduction in smooth muscle hypertrophy and medial thickness | reduction in neointimal thickness ([4]; treated grafts vs untreated): 70% | penetration into connective tissue (connective tissue): ≤ 100 μm
